# Data published in ChEMBL document CHEMBL1126718, “Potent in vitro and in vivo inhibitors of platelet aggregation based upon the Arg-Gly-Asp-Phe sequence of fibrinogen. A proposal on the nature of the binding interaction between the Arg-guanidine of RGDX mimetics and the platelet GP IIb-IIIa receptor” (J Med Chem, 1993).
# Peptide text beside a SMILES is read from it.
# Legend:
# [1] = In vitro inhibition of ADP-induced platelet aggregation in human platelet rich plasma (PRP); format: functional
# Canis familiaris [2] = organism: Canis familiaris; assay: In vitro inhibition of ADP-induced platelet aggregation in canine platelet rich plasma (PRP); format: functional; details: Canis lupus familiaris
# [3] = In vitro inhibition of ADP-induced platelet aggregation in platelet rich plasma (PRP); format: functional
# Canis familiaris [4] = organism: Canis familiaris; assay: In vitro inhibition of ADP-induced platelet aggregation in canine platelet rich plasma (PRP); Inactive; format: functional, Canis lupus familiaris
SMILES,IC50 [1],IC50 (Canis familiaris [2]),IC50 [3],IC50 (Canis familiaris [4])
N=C(N)NCCC[C@H](N)C(=O)NCC(=O)N[C@@H](CC(=O)O)C(=O)N[C@@H](Cc1ccccc1)C(=O)O (H-RGDF-OH),–,–,90000 nM,–
N=C(N)c1ccc(CCCCC(=O)N[C@@H](CC(=O)O)C(=O)N[C@@H](Cc2ccccc2)C(=O)O)cc1,42 nM,53 nM,–,–
N=C(N)c1ccc(CCCC(=O)N[C@@H](CC(=O)O)C(=O)N[C@@H](Cc2ccccc2)C(=O)O)cc1,–,–,–,Not Active
N=C(N)c1cccc(/C=C/CCCC(=O)N[C@@H](CC(=O)O)C(=O)N[C@@H](Cc2ccccc2)C(=O)O)c1,3200 nM,4300 nM,–,–

# Further compounds by falling IC50 (Canis familiaris [2]), results first:
IC50 [1],IC50 (Canis familiaris [2]),IC50 [3],IC50 (Canis familiaris [4]),SMILES
–,5800 nM,–,–,N=C(N)c1cccc(CCCCCC(=O)N[C@@H](CC(=O)O)C(=O)N[C@@H](Cc2ccccc2)C(=O)O)c1
–,180 nM,–,–,N=C(N)c1ccc(CC(=O)CCC(=O)N[C@@H](CC(=O)O)C(=O)N[C@@H](Cc2ccccc2)C(=O)O)cc1
120 nM,90 nM,–,–,N=C(N)c1ccc(C#CCCC(=O)N[C@@H](CC(=O)O)C(=O)N[C@@H](Cc2ccccc2)C(=O)O)cc1
90 nM,82 nM,–,–,N=C(N)c1ccc(/C=C/CCC(=O)N[C@@H](CC(=O)O)C(=O)N[C@@H](Cc2ccccc2)C(=O)O)cc1
